Assay results reported in ChEMBL document CHEMBL4261622, “Monosaccharide inhibitors targeting carbohydrate esterase family 4 de-N-acetylases” (Bioorg Med Chem, 2018).
The source made the active and inactive calls. The rule behind the calls is not given here.

Columns and labels:
[1] = target: T1, Poly-beta-1,6-N-acetyl-D-glucosamine N-deacetylase (Escherichia coli (strain K12), UniProt P75906); assay: (§1) Inhibition of Escherichia coli PgaB expressed in Escherichia coli BL21 (DE3) cells transformed with pET28 plasmid coding for PgaB42-655 using compound pre-incubated with 1Eq DTT and using acetoxymethyl-4-methylumbelliferone as substrate measured at 2 min intervals over 10 mins in presence of CoCl2 by fluorescence assay
T1 sequence (P75906 whole entry): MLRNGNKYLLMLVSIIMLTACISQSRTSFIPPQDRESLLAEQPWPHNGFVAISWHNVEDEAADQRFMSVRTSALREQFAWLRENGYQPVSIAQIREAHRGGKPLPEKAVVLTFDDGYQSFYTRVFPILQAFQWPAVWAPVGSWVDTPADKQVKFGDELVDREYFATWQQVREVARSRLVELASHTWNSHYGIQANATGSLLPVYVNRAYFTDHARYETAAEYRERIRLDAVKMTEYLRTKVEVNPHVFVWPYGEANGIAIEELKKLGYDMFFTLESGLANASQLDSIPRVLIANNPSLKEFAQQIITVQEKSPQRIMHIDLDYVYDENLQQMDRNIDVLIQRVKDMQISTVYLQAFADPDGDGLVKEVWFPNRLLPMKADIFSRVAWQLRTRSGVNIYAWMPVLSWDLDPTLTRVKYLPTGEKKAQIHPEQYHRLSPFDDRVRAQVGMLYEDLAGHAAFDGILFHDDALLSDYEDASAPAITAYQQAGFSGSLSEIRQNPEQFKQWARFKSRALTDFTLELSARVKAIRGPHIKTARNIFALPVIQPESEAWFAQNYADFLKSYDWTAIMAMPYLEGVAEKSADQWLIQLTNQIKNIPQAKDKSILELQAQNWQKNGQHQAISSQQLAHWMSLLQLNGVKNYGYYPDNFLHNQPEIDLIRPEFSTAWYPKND

[2] = target: T1, Poly-beta-1,6-N-acetyl-D-glucosamine N-deacetylase; assay: as §1, with “ZnCl2” for “CoCl2”
[3] = target: T2, Peptidoglycan-N-acetylglucosamine deacetylase (Streptococcus pneumoniae (strain ATCC BAA-255 / R6), UniProt Q8DP63); assay: (§2) Inhibition of Streptococcus pneumoniae Pgda expressed in Escherichia coli BL21 (DE3) cells transformed with pET28bSpPgdA232-431 plasmid using compound pre-incubated with 1Eq DTT and using acetoxymethyl-4-methylumbelliferone as substrate measured at 5 min intervals over 60 mins in presence of CoCl2 by fluorescence assay
T2 sequence (Q8DP63 whole entry): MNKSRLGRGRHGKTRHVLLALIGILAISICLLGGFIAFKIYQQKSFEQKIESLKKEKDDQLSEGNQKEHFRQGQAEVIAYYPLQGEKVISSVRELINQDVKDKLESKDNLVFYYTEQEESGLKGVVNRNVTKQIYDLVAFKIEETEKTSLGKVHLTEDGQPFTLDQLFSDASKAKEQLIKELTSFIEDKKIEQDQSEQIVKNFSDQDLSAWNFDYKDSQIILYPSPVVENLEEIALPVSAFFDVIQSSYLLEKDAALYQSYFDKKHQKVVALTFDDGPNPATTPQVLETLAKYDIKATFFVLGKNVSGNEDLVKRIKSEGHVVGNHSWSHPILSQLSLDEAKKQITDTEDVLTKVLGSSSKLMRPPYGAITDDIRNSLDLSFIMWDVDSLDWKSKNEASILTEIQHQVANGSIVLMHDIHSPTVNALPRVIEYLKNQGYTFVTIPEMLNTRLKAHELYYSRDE

[4] = target: T2, Peptidoglycan-N-acetylglucosamine deacetylase; assay: as §2, with “ZnCl2” for “CoCl2”
[5] = target: T3, Poly-beta-1,6-N-acetyl-D-glucosamine N-deacetylase (Escherichia coli (strain K12)) (UniProt P75906); assay: Substrate activity at Escherichia coli PgaB at 1 mM in presence of CoCl2 or ZnCl2 by fluorescamine assay deacetylase assay
T3 sequence (whole entry): T1 sequence (P75906 whole entry)

[6] = target: T4, Peptidoglycan-N-acetylglucosamine deacetylase (Streptococcus pneumoniae (strain ATCC BAA-255 / R6)) (UniProt Q8DP63); assay: Substrate activity at Streptococcus pneumoniae Pgda at 1 mM in presence of CoCl2 or ZnCl2 by fluorescamine assay deacetylase assay
T4 sequence (whole entry): T2 sequence (Q8DP63 whole entry)

[7] = target: T3, Poly-beta-1,6-N-acetyl-D-glucosamine N-deacetylase (Escherichia coli (strain K12)); assay: Substrate activity at Escherichia coli PgaB at 5 mM in presence of CoCl2 or ZnCl2 by fluorescamine assay deacetylase assay
[8] = target: T4, Peptidoglycan-N-acetylglucosamine deacetylase (Streptococcus pneumoniae (strain ATCC BAA-255 / R6)); assay: Substrate activity at Streptococcus pneumoniae Pgda at 5 mM in presence of CoCl2 or ZnCl2 by fluorescamine assay deacetylase assay
[9] = target: T3, Poly-beta-1,6-N-acetyl-D-glucosamine N-deacetylase (Escherichia coli (strain K12)); assay: Inhibition of Escherichia coli PgaB expressed in Escherichia coli BL21 (DE3) cells transformed with pET28 plasmid coding for PgaB42-655 at 10 mM using acetoxymethyl-4-methylumbelliferone as substrate measured at 2 min intervals over 10 mins in presence of CoCl2 by fluorescence assay
[10] = target: T4, Peptidoglycan-N-acetylglucosamine deacetylase (Streptococcus pneumoniae (strain ATCC BAA-255 / R6)); assay: Inhibition of Streptococcus pneumoniae Pgda expressed in Escherichia coli BL21 (DE3) cells transformed with pET28bSpPgdA232-431 plasmid at 10 mM using acetoxymethyl-4-methylumbelliferone as substrate measured at 5 min intervals over 60 mins in presence of CoCl2 by fluorescence assay
[11] = target: T1, Poly-beta-1,6-N-acetyl-D-glucosamine N-deacetylase; assay: Inhibition of Escherichia coli PgaB expressed in Escherichia coli BL21 (DE3) cells transformed with pET28 plasmid coding for PgaB42-655 using acetoxymethyl-4-methylumbelliferone as substrate measured at 2 min intervals over 10 mins in presence of CoCl2 by fluorescence assay
[12] = target: T2, Peptidoglycan-N-acetylglucosamine deacetylase; assay: Inhibition of Streptococcus pneumoniae Pgda expressed in Escherichia coli BL21 (DE3) cells transformed with pET28bSpPgdA232-431 plasmid using acetoxymethyl-4-methylumbelliferone as substrate measured at 5 min intervals over 60 mins in presence of CoCl2 by fluorescence assay
[13] = target: T4, Peptidoglycan-N-acetylglucosamine deacetylase (Streptococcus pneumoniae (strain ATCC BAA-255 / R6)); assay: Inhibition of Streptococcus pneumoniae Pgda expressed in Escherichia coli BL21 (DE3) cells transformed with pET28bSpPgdA232-431 plasmid at 5 mM using acetoxymethyl-4-methylumbelliferone as substrate measured at 5 min intervals over 60 mins in presence of CoCl2 by fluorescence assay
[14] = target: T4, Peptidoglycan-N-acetylglucosamine deacetylase (Streptococcus pneumoniae (strain ATCC BAA-255 / R6)); assay: Inhibition of Streptococcus pneumoniae Pgda expressed in Escherichia coli BL21 (DE3) cells transformed with pET28bSpPgdA232-431 plasmid at 200 to 1200 uM using acetoxymethyl-4-methylumbelliferone as substrate measured at 5 min intervals over 60 mins in presence of 3 uM ZnCl2 by fluorescence assay
[15] = target: T4, Peptidoglycan-N-acetylglucosamine deacetylase (Streptococcus pneumoniae (strain ATCC BAA-255 / R6)); assay: Inhibition of Streptococcus pneumoniae Pgda expressed in Escherichia coli BL21 (DE3) cells transformed with pET28bSpPgdA232-431 plasmid at 200 to 1200 uM using acetoxymethyl-4-methylumbelliferone as substrate measured at 5 min intervals over 60 mins in presence of 6 uM ZnCl2 by fluorescence assay
[16] = target: T4, Peptidoglycan-N-acetylglucosamine deacetylase (Streptococcus pneumoniae (strain ATCC BAA-255 / R6)); assay: Inhibition of Streptococcus pneumoniae Pgda expressed in Escherichia coli BL21 (DE3) cells transformed with pET28bSpPgdA232-431 plasmid at 200 to 1200 uM using acetoxymethyl-4-methylumbelliferone as substrate measured at 5 min intervals over 60 mins in presence of 200 uM ZnCl2 by fluorescence assay
[17] = target: T2, Peptidoglycan-N-acetylglucosamine deacetylase; assay: Partial mixed inhibition of Streptococcus pneumoniae apo-Pgda using N,N',N\"-triacetyl chitotriose as substrate in presence of ZnCl2 by fluorescamine assay deacetylase assay based Dixon plot analysis

SMILES: CS(=O)(=O)N[C@H]1[C@H](OCc2ccccc2)O[C@H](CO)[C@@H](O)[C@@H]1S
- IC50 [1]: > 1 mM
- IC50 [2]: > 1 mM
- IC50 [3]: > 1 mM
- IC50 [4]: > 1 mM
- Activity [5]: inactive
- Activity [6]: inactive

SMILES: CC(=O)N[C@H]1[C@H](OCc2ccccc2)O[C@H](CO)[C@@H](O)[C@@H]1S
- Activity [7]: inactive
- Activity [8]: inactive
- IC50 [1]: > 8 mM
- IC50 [2]: 1.1 mM
- IC50 [3]: > 8 mM
- IC50 [4]: 5 mM

SMILES: O[C@H](CS)[C@H](O)CS
- inhibition [9]: inactive
- inhibition [10]: inactive

SMILES: CC(=S)N[C@H]1[C@H](OCc2ccccc2)O[C@H](CO)[C@@H](O)[C@@H]1O
- IC50 [11]: > 10 mM
- IC50 [12]: > 10 mM
- Activity [7]: inactive
- Activity [8]: inactive

SMILES: COP(=O)(O)C[C@H]1[C@H](OCc2ccccc2)O[C@H](CO)[C@@H](OCc2ccccc2)[C@@H]1O
- IC50 [11]: > 5 mM
- IC50 [12]: > 5 mM
- inhibition [13]: inactive

SMILES: NS(=O)(=O)C[C@H]1[C@H](OCc2ccccc2)O[C@H](CO)[C@@H](OCc2ccccc2)[C@@H]1O
- IC50 [11]: > 5 mM
- IC50 [12]: > 5 mM

SMILES: CC(=O)N[C@H]1[C@H](OCc2ccccc2)O[C@H](CO)[C@@H](O)[C@@H]1N=[N+]=[N-]
- IC50 [11]: > 5 mM
- IC50 [12]: > 5 mM
- Activity [5]: inactive
- Activity [6]: inactive

SMILES: COP(=O)(O)C[C@H]1[C@H](OCc2ccccc2)O[C@H](CO)[C@@H](O)[C@@H]1O
- IC50 [11]: > 10 mM
- IC50 [12]: 4.9 mM

SMILES: CC(=S)N[C@H]1[C@H](OCc2ccccc2)O[C@H](CO)[C@@H](O)[C@@H]1S
- inhibition [14]: inactive
- inhibition [15]: Active
- inhibition [16]: Active
- Ki [17]: 0.0029 mM
- IC50 [1]: > 1 mM
- IC50 [2]: 0.14 mM
- IC50 [3]: > 1 mM
- IC50 [4]: 0.011 mM
- Activity [5]: inactive
- Activity [6]: inactive

SMILES: CC(=O)N[C@H]1[C@H](OCc2ccccc2)O[C@H](CO)[C@@H](O)[C@@H]1N
- IC50 [11]: > 10 mM
- IC50 [12]: > 10 mM
- Activity [7]: inactive
- Activity [8]: inactive

SMILES: CC(=O)N[C@H]1[C@H](OCc2ccccc2)O[C@H](CO)[C@@H](O)[C@@H]1O
- IC50 [11]: > 20 mM
- IC50 [12]: 11 mM
- Activity [7]: inactive
- Activity [8]: inactive

SMILES: NS(=O)(=O)C[C@H]1[C@H](OCc2ccccc2)O[C@H](CO)[C@@H](O)[C@@H]1O
- IC50 [11]: > 10 mM
- IC50 [12]: > 10 mM

SMILES: COP(=O)(O)C[C@H]1[C@H](OCc2ccccc2)O[C@H](COCc2ccccc2)[C@@H](O)[C@@H]1O
- IC50 [11]: > 5 mM
- IC50 [12]: > 5 mM
- inhibition [13]: inactive
